Measured values as given in the NIST ThermoML archive (doi:10.1016/j.fluid.2017.07.006).
± gives the expanded uncertainty stated by the source.

Details: Liquid

CC(O)CO (stereo not given) [1,2-propanediol]
Details	mass density [kg/m3]	viscosity [mPa·s]
353.15 K, 101.33 kPa, Pycnometric method	990.28 ± 0.4	–
353.4 K, 101.33 kPa, Capillary tube (Ostwald / Ubbelohde) method	–	4.29 ± 0.061
353.6 K, 101.33 kPa, Capillary tube (Ostwald / Ubbelohde) method	–	4.18 ± 0.06
364.39 K, 98 kPa, Buoyancy - hydrostatic balance	981.63 ± 1.5	–
364.39 K, 98 kPa, Falling or rolling sphere viscometry	–	3.034 ± 0.065
364.66 K, 49030 kPa, Buoyancy - hydrostatic balance	1007.36 ± 1.5	–
364.66 K, 49030 kPa, Falling or rolling sphere viscometry	–	4.074 ± 0.088
364.83 K, 98060 kPa, Buoyancy - hydrostatic balance	1031.15 ± 1.6	–
364.83 K, 98060 kPa, Falling or rolling sphere viscometry	–	5.292 ± 0.11
364.87 K, 147100 kPa, Buoyancy - hydrostatic balance	1051.61 ± 3.2	–
364.87 K, 147100 kPa, Falling or rolling sphere viscometry	–	6.718 ± 0.14
364.99 K, 245160 kPa, Buoyancy - hydrostatic balance	1081.56 ± 3.2	–
364.99 K, 245160 kPa, Falling or rolling sphere viscometry	–	10.31 ± 0.22
365 K, 196130 kPa, Buoyancy - hydrostatic balance	1067.32 ± 3.2	–
365 K, 196130 kPa, Falling or rolling sphere viscometry	–	8.372 ± 0.18
365.15 K, 101.33 kPa, Pycnometric method	978.97 ± 0.42	–
368.15 K, 101.33 kPa, Pycnometric method	977.28 ± 0.42	–
388.6 K, 101.33 kPa, Capillary tube (Ostwald / Ubbelohde) method	–	1.767 ± 0.015
389.3 K, 101.33 kPa, Capillary tube (Ostwald / Ubbelohde) method	–	1.7 ± 0.014
394.95 K, 98 kPa, Buoyancy - hydrostatic balance	953.22 ± 1.4	–
394.95 K, 98 kPa, Falling or rolling sphere viscometry	–	1.504 ± 0.032
395.11 K, 49030 kPa, Buoyancy - hydrostatic balance	982.98 ± 1.5	–
395.11 K, 49030 kPa, Falling or rolling sphere viscometry	–	1.954 ± 0.042
395.17 K, 98060 kPa, Buoyancy - hydrostatic balance	1010.62 ± 1.5	–
395.17 K, 98060 kPa, Falling or rolling sphere viscometry	–	2.451 ± 0.052
395.38 K, 147100 kPa, Buoyancy - hydrostatic balance	1033.92 ± 3.1	–
395.38 K, 147100 kPa, Falling or rolling sphere viscometry	–	3.011 ± 0.065
395.57 K, 196130 kPa, Buoyancy - hydrostatic balance	1051.9 ± 3.2	–
395.57 K, 196130 kPa, Falling or rolling sphere viscometry	–	3.659 ± 0.078
395.68 K, 245160 kPa, Buoyancy - hydrostatic balance	1067.12 ± 3.2	–
395.68 K, 245160 kPa, Falling or rolling sphere viscometry	–	4.374 ± 0.094
399.15 K, 101.33 kPa, Pycnometric method	949.76 ± 0.49	–
423.3 K, 101.33 kPa, Capillary tube (Ostwald / Ubbelohde) method	–	0.926 ± 0.006
423.51 K, 98 kPa, Buoyancy - hydrostatic balance	926.76 ± 1.4	–
423.51 K, 98 kPa, Falling or rolling sphere viscometry	–	0.925 ± 0.02
423.62 K, 49030 kPa, Buoyancy - hydrostatic balance	959.18 ± 1.4	–
423.62 K, 49030 kPa, Falling or rolling sphere viscometry	–	1.239 ± 0.026
423.65 K, 101.33 kPa, Pycnometric method	925.92 ± 0.54	–
423.9 K, 98060 kPa, Buoyancy - hydrostatic balance	989.94 ± 1.5	–
423.9 K, 98060 kPa, Falling or rolling sphere viscometry	–	1.533 ± 0.033
423.97 K, 147100 kPa, Buoyancy - hydrostatic balance	1016.34 ± 3	–
423.97 K, 147100 kPa, Falling or rolling sphere viscometry	–	1.89 ± 0.04
424.05 K, 196130 kPa, Buoyancy - hydrostatic balance	1038.38 ± 3.1	–
424.05 K, 196130 kPa, Falling or rolling sphere viscometry	–	2.244 ± 0.048
424.3 K, 245160 kPa, Buoyancy - hydrostatic balance	1054.25 ± 3.2	–
424.3 K, 245160 kPa, Falling or rolling sphere viscometry	–	2.608 ± 0.056
450.15 K, 101.33 kPa, Pycnometric method	896.89 ± 0.59	–
452.07 K, 245160 kPa, Buoyancy - hydrostatic balance	1042.31 ± 3.1	–
452.07 K, 245160 kPa, Falling or rolling sphere viscometry	–	1.656 ± 0.035
452.1 K, 49030 kPa, Buoyancy - hydrostatic balance	934.51 ± 1.4	–
452.1 K, 49030 kPa, Falling or rolling sphere viscometry	–	0.81 ± 0.017
452.14 K, 98060 kPa, Buoyancy - hydrostatic balance	965.53 ± 1.4	–
452.14 K, 98060 kPa, Falling or rolling sphere viscometry	–	0.995 ± 0.021
452.17 K, 98 kPa, Buoyancy - hydrostatic balance	900.36 ± 1.4	–
452.17 K, 98 kPa, Falling or rolling sphere viscometry	–	0.604 ± 0.013
452.18 K, 196130 kPa, Buoyancy - hydrostatic balance	1022.83 ± 3.1	–
452.18 K, 196130 kPa, Falling or rolling sphere viscometry	–	1.425 ± 0.03
452.19 K, 147100 kPa, Buoyancy - hydrostatic balance	996.01 ± 3	–
452.19 K, 147100 kPa, Falling or rolling sphere viscometry	–	1.212 ± 0.026
458.9 K, 101.33 kPa, Capillary tube (Ostwald / Ubbelohde) method	–	0.533 ± 0.004
